Results reported in the supplement of paper PMC10733146.

What was measured:
Experiment in all cases: viability relative to DMSO control (fraction); higher = less drug effect (more viable cells)
Conditions in all cases: 48 h
[1] = test system: primary FL patient cells (S022)
How it was run: (§1)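 In 384-well plates with compounds pre-plated at five concentrations (one well per concentration), primary mononuclear tumour cells were plated at 4 × 10^4 cells per well. The cells came from blood or bone marrow by Ficoll isolation or from processed lymph node, and were used fresh or cryopreserved. Culture ran for 48 h at 37 °C and 5% CO2 in RPMI-1640 containing penicillin/streptomycin, L-glutamine and human serum. Viability was read as CellTiter-Glo luminescence, normalised to the median of 16 inner DMSO wells.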

[2] = test system: primary FL patient cells (S087)
How it was run: as §1

[3] = test system: primary AML patient cells (S056)
How it was run: as §1

[4] = test system: primary MCL patient cells (S063)
How it was run: as §1

[5] = test system: primary AML patient cells (S085)
How it was run: as §1

[6] = test system: primary CLL patient cells (S031)
How it was run: as §1

[7] = test system: primary MCL patient cells (S041)
How it was run: as §1

[8] = test system: primary AML patient cells (S079)
How it was run: as §1

[9] = test system: primary ALL patient cells (S088)
How it was run: as §1

[10] = test system: primary AML patient cells (S006)
How it was run: as §1

[11] = test system: primary ALL patient cells (S048)
How it was run: as §1

[12] = test system: primary AML patient cells (S011)
How it was run: as §1

[13] = test system: primary AML patient cells (S019)
How it was run: as §1

[14] = test system: primary AML patient cells (S012)
How it was run: as §1

Question: Which results are given for `O=C1c2c(O)ccc(O)c2C(=O)c2c(NCCNCCO)ccc(NCCNCCO)c21` [Mitoxantrone]?
Answer: viability ([1]; 0.008 µM): 0.953; viability ([1]; 0.04 µM): 0.844; viability ([1]; 0.2 µM): 0.804; viability ([1]; 1 µM): 0.437; viability ([1]; 5 µM): 0.229; viability ([2]; 0.008 µM): 0.868; viability ([2]; 0.04 µM): 0.763; viability ([2]; 0.2 µM): 0.717; viability ([2]; 1 µM): 0.548; viability ([2]; 5 µM): 0.177; viability ([3]; 0.008 µM): 0.397; viability ([3]; 0.04 µM): 0.17; viability ([3]; 0.2 µM): 0.128; viability ([3]; 1 µM): 0.0823; viability ([3]; 5 µM): 0.0488; viability ([4]; 0.008 µM): 1.02; viability ([4]; 0.04 µM): 0.812; viability ([4]; 0.2 µM): 0.598; viability ([4]; 1 µM): 0.246; viability ([4]; 5 µM): 0.0145; viability ([5]; 0.008 µM): 0.538; viability ([5]; 0.04 µM): 0.295; viability ([5]; 0.2 µM): 0.277; viability ([5]; 1 µM): 0.065; viability ([5]; 5 µM): 0.0217; viability ([6]; 0.008 µM): 0.614; viability ([6]; 0.04 µM): 0.383; viability ([6]; 0.2 µM): 0.335; viability ([6]; 1 µM): 0.0955; viability ([6]; 5 µM): 0.0133; viability ([7]; 0.008 µM): 0.985; viability ([7]; 0.04 µM): 0.862; viability ([7]; 0.2 µM): 0.569; viability ([7]; 1 µM): 0.0728; viability ([7]; 5 µM): 0.015; viability ([8]; 0.008 µM): 0.801; viability ([8]; 0.04 µM): 0.655; viability ([8]; 0.2 µM): 0.526; viability ([8]; 1 µM): 0.133; viability ([8]; 5 µM): 0.0172; viability ([9]; 0.008 µM): 0.535; viability ([9]; 0.04 µM): 0.271; viability ([9]; 0.2 µM): 0.216; viability ([9]; 1 µM): 0.0605; viability ([9]; 5 µM): 0.0218; viability ([10]; 0.008 µM): 0.426; viability ([10]; 0.04 µM): 0.155; viability ([10]; 0.2 µM): 0.0754; viability ([10]; 1 µM): 0.0534; viability ([10]; 5 µM): 0.0375; viability ([11]; 0.008 µM): 0.449; viability ([11]; 0.04 µM): 0.0767; viability ([11]; 0.2 µM): 0.113; viability ([11]; 1 µM): 0.0232; viability ([11]; 5 µM): 0.0139; viability ([12]; 0.008 µM): 0.818; viability ([12]; 0.04 µM): 0.384; viability ([12]; 0.2 µM): 0.203; viability ([12]; 1 µM): 0.041; viability ([12]; 5 µM): 0.0174; viability ([13]; 0.008 µM): 0.647; viability ([13]; 0.04 µM): 0.256; viability ([13]; 0.2 µM): 0.282; viability ([13]; 1 µM): 0.132; viability ([13]; 5 µM): 0.0646; viability ([14]; 0.008 µM): 0.991; viability ([14]; 0.04 µM): 0.995; viability ([14]; 0.2 µM): 0.978; viability ([14]; 1 µM): 0.862; viability ([14]; 5 µM): 0.0416

Question: `CC(C)(C)C[C@@H]1N[C@@H](C(=O)N[C@H]2CC[C@H](O)CC2)[C@H](c2cccc(Cl)c2F)[C@]12C(=O)Nc1cc(Cl)ccc12` [MI-773] was tested. Which viability ([1]; 0.008 µM) did it give?
Answer: 1.02

Question: What about the viability ([1]; 0.04 µM) of the same molecule?
Answer: 0.934

Question: What about the viability ([1]; 0.2 µM) of the same molecule?
Answer: 0.957

Question: And the viability ([1]; 1 µM)?
Answer: 0.947

Question: And the viability ([1]; 5 µM)?
Answer: 0.722

Question: What about the viability ([2]; 0.008 µM) of the same molecule?
Answer: 1

Question: And the viability ([2]; 0.04 µM)?
Answer: 0.99

Question: What about the viability ([2]; 0.2 µM) of the same molecule?
Answer: 0.937

Question: What about the viability ([2]; 1 µM) of the same molecule?
Answer: 0.849

Question: What about the viability ([2]; 5 µM) of the same molecule?
Answer: 0.694

Question: What about the viability ([3]; 0.008 µM) of the same molecule?
Answer: 1.03

Question: What about the viability ([3]; 0.04 µM) of the same molecule?
Answer: 0.9

Question: What about the viability ([3]; 0.2 µM) of the same molecule?
Answer: 0.696

Question: And the viability ([3]; 1 µM)?
Answer: 0.296

Question: And the viability ([3]; 5 µM)?
Answer: 0.117

Question: What about the viability ([4]; 0.008 µM) of the same molecule?
Answer: 1.07

Question: What about the viability ([4]; 0.04 µM) of the same molecule?
Answer: 1.05

Question: And the viability ([4]; 0.2 µM)?
Answer: 0.995

Question: And the viability ([4]; 1 µM)?
Answer: 0.705

Question: And the viability ([4]; 5 µM)?
Answer: 0.246

Question: And the viability ([5]; 0.008 µM)?
Answer: 1.08

Question: And the viability ([5]; 0.04 µM)?
Answer: 0.972

Question: What about the viability ([5]; 0.2 µM) of the same molecule?
Answer: 0.849

Question: And the viability ([5]; 1 µM)?
Answer: 0.481

Question: And the viability ([5]; 5 µM)?
Answer: 0.204

Question: What about the viability ([6]; 0.008 µM) of the same molecule?
Answer: 0.97

Question: What about the viability ([6]; 0.04 µM) of the same molecule?
Answer: 0.819

Question: And the viability ([6]; 0.2 µM)?
Answer: 0.593

Question: And the viability ([6]; 1 µM)?
Answer: 0.439

Question: What about the viability ([6]; 5 µM) of the same molecule?
Answer: 0.0647

Question: And the viability ([7]; 0.008 µM)?
Answer: 1.02

Question: And the viability ([7]; 0.04 µM)?
Answer: 0.976

Question: What about the viability ([7]; 0.2 µM) of the same molecule?
Answer: 0.92

Question: And the viability ([7]; 1 µM)?
Answer: 0.752

Question: And the viability ([7]; 5 µM)?
Answer: 0.434

Question: What about the viability ([8]; 0.008 µM) of the same molecule?
Answer: 1.01

Question: What about the viability ([8]; 0.04 µM) of the same molecule?
Answer: 1.01

Question: What about the viability ([8]; 0.2 µM) of the same molecule?
Answer: 1.01

Question: What about the viability ([8]; 1 µM) of the same molecule?
Answer: 0.901

Question: What about the viability ([8]; 5 µM) of the same molecule?
Answer: 0.636

Question: And the viability ([9]; 0.008 µM)?
Answer: 1

Question: What about the viability ([9]; 0.04 µM) of the same molecule?
Answer: 0.88

Question: And the viability ([9]; 0.2 µM)?
Answer: 0.701

Question: And the viability ([9]; 1 µM)?
Answer: 0.366

Question: What about the viability ([9]; 5 µM) of the same molecule?
Answer: 0.151

Question: What about the viability ([10]; 0.008 µM) of the same molecule?
Answer: 0.915

Question: And the viability ([10]; 0.04 µM)?
Answer: 0.761

Question: And the viability ([10]; 0.2 µM)?
Answer: 0.481

Question: And the viability ([10]; 1 µM)?
Answer: 0.194

Question: And the viability ([10]; 5 µM)?
Answer: 0.0491

Question: And the viability ([11]; 0.008 µM)?
Answer: 1.01

Question: And the viability ([11]; 0.04 µM)?
Answer: 0.992

Question: And the viability ([11]; 0.2 µM)?
Answer: 0.799

Question: And the viability ([11]; 1 µM)?
Answer: 0.472

Question: And the viability ([11]; 5 µM)?
Answer: 0.0627

Question: What about the viability ([12]; 0.008 µM) of the same molecule?
Answer: 0.937

Question: What about the viability ([12]; 0.04 µM) of the same molecule?
Answer: 0.938

Question: What about the viability ([12]; 0.2 µM) of the same molecule?
Answer: 0.7

Question: And the viability ([12]; 1 µM)?
Answer: 0.465

Question: What about the viability ([12]; 5 µM) of the same molecule?
Answer: 0.218

Question: And the viability ([13]; 0.008 µM)?
Answer: 1.34

Question: And the viability ([13]; 0.04 µM)?
Answer: 1.23

Question: And the viability ([13]; 0.2 µM)?
Answer: 1.19

Question: And the viability ([13]; 1 µM)?
Answer: 0.689

Question: What about the viability ([13]; 5 µM) of the same molecule?
Answer: 0.343

Question: What about the viability ([14]; 0.008 µM) of the same molecule?
Answer: 0.96

Question: And the viability ([14]; 0.04 µM)?
Answer: 0.971

Question: And the viability ([14]; 0.2 µM)?
Answer: 0.937

Question: And the viability ([14]; 1 µM)?
Answer: 0.976

Question: And the viability ([14]; 5 µM)?
Answer: 1.02
